Data taken from PMC10590756, “Glutarate regulates T cell metabolism and anti-tumour immunity” (Nature Metabolism, 2023).

Tests used:
[1] = tested on: H3 lysine methylation in human CD8^+ T cells; assay: Histone 3 methylation western blot; format: cell-based; settings: DEG 500 µM, 7 days
Experimental: Histones were extracted with the Histone Extraction Kit (catalogue no. ab113476, Abcam). Proteins were separated by SDS–PAGE and transferred to polyvinylidene fluoride (PVDF) membranes. Total protein stain was obtained using non-stain protein labelling reagent (catalogue no. A44448, Thermo Fisher Scientific). Membranes were then blocked in 5% milk prepared in PBS plus 0.05% Tween-20, incubated with primary antibodies overnight at 4 °C and horseradish peroxidase (HRP)-conjugated secondary antibodies (catalogue nos. HAF008 and HAF007, R&D Systems) for 1 h the next day. After enhanced chemiluminescence (ECL) exposure (catalogue no. GERPN2106, Sigma-Aldrich), membranes were imaged using an iBrightCL1000 (Thermo Fisher Scientific). […] 13998); and anti-H3k27ac (catalogue no.

human CD8^+ T cells [2] = assay: Markers of T cell differentiation and exhaustion by flow cytometry; format: cell-based
Experimental: Single-cell suspensions were stained with LIVE/DEAD Fixable Near-IR Dead Cell Stain Kit (catalogue no. 10119, Thermo Fisher Scientific) followed by surface and intracellular staining with fluorochrome-labelled antibodies (Supplementary Tables 1 and 2). Staining of cytoplasmic and nuclear antigens was performed using the Cytofix/Cytoperm Fixation/Permeabilization Kit (catalogue no. 554714, BD Biosciences) and the Transcription Factor Buffer Set (catalogue no. 562725, BD Biosciences), respectively. For the proliferation assays, cells were loaded with CellTrace Violet (catalogue no. C34557, Thermo Fisher Scientific) according to the manufacturer’s instructions. Samples were acquired on an Aurora (Cytek Biosciences).

PDHc = biological target: T1, PDHc (Homo sapiens, UniProt P10515); assay: PDHc activity assay on CD8^+ T cell lysates; format: cell-based; settings: 500 µM DEG
T1 construct: we performed a direct enzymatic activity assay of the PDHc on CD8^+ T cell lysates; endogenous in cells; host or cells: human CD8+ T cells, lysate (activity kit MAK183, Sigma-Aldrich)
Experimental: PDHc activity was determined using a PDHc Activity Assay Kit (catalogue no. MAK183, Sigma-Aldrich). A total of 1 × 10^6 cells were used per reaction and the assay was performed according to the manufacturer’s instructions. Activity was normalized to total protein concentration. Data were acquired on a FLUOstar Omega (BMG Labtech).

CD19^+ Raji cells = assay: In vitro cytotoxicity and IFNγ secretion of CD19 CAR T cells; format: cell-based, human; settings: T cells cultured 7 days with 500 µM DEG
Experimental: Secreted IFNγ levels of cultured cells were determined using an ELISA. Assays were performed with uncoated ELISA kits (catalogue no. 88-7316, Thermo Fisher Scientific), according to the manufacturer’s instructions. Absorbance was determined using a microplate reader (Sunrise, Tecan) at a wavelength of 450 nm.
(§1) Ten thousand B16F10-OVA or SKOV3 cells were seeded per well in 96-well plates and cocultured for a minimum of 14 h with varying ratios of mouse CD8^+ OT1 or human CD8^+RQR8^+ HER2 CAR T cells, respectively. T cells had been treated with or without DEG 7 days before the assay. Wells were washed twice with PBS to remove T cells and the number of remaining target cells was determined by culturing with 10 µg ml^−1 resazurin (catalogue no. R7017, Sigma-Aldrich) and measuring the fluorescence signal in a plate reader. Cytotoxicity was calculated relative to wells with no T cells added. Ten thousand Raji cells were cocultured for a minimum of 14 h with CD19 CAR T cells previously activated for 7 days and cultured with or without DEG. Cytotoxicity was assessed by flow cytometry using the ratio of live Raji cells to CountBright Absolute Counting Beads (catalogue no. C36950, Thermo Fisher Scientific). To determine specific cytotoxicity, data were normalized to the cytotoxicity of the vector-controlled transduced CD8 T cells of the respective donor.

human CD8^+ T cells [3] = assay: qPCR gene expression in CD8^+ T cells; format: cell-based; settings: 500 µM DEG, 7 days
Experimental: Total RNA was extracted from isolated CD8^+ T cells (RNeasy Kit, QIAGEN); 300 ng of RNA were used for complementary DNA synthesis (First-Strand cDNA Synthesis Kit, Invitrogen). Quantitative PCR with reverse transcription (RT–qPCR) was performed with SYBR green (Roche) in a StepOnePlus system (Applied Biosystems). All kits were used according to the manufacturer’s instructions. Samples were run in technical duplicates. Primers were designed with NCBI primer blast and are listed in Supplementary Table 5.

B16F10-OVA cancer cells = assay: In vitro cytotoxicity of OT1 CD8^+ T cells; format: cell-based, mouse; settings: T cells cultured 7 days with 500 µM DEG
Experimental: as §1

[4] = 10 days of DEG treatment, 500 µM

CCOC(=O)CCCC(=O)OCC [DEG, Diethyl glutarate]
dimethylation of H3K9 [1]: increased | trimethylation of H3K9 [1]: increased | trimethylation of H3K27 [1]: increased | expression of LAG3 (human CD8^+ T cells [2]; [4]): downregulated | expression of TIM3 (human CD8^+ T cells [2]; [4]): downregulated | expression of TOX (human CD8^+ T cells [2]; [4]): downregulated | expression of granzyme B (GZMB) (human CD8^+ T cells [2]; DEG 500 µM, 7-10 days): increases | PDHc activity, acute exposure (PDHc; 30 min): decreased PDHc activity | PDHc activity, chronic exposure (PDHc; seven day): decreased PDHc activity | cytotoxicity of CD19^+ CAR T cells against CD19^+ Raji cells (CD19^+ Raji cells): increased cytotoxicity | interferon-γ (IFNγ) secretion of CD19^+ CAR T cells (CD19^+ Raji cells; coculture with Raji cells): secreted more | carnitine palmitoyltransferase 1A (CPT1A) gene expression (human CD8^+ T cells [3]): increased levels | expression of HIF target genes (human CD8^+ T cells [3]): increased expression | fatty acid binding protein (FABP) gene expression (human CD8^+ T cells [3]): increased levels | fatty acid synthase (FASN) gene expression (human CD8^+ T cells [3]): increased levels | mRNA levels of PDHK1 (human CD8^+ T cells [3]): increased | killing of B16F10-OVA cancer cells by OT1 CD8^+ T cells (B16F10-OVA cancer cells): more proficient at killing
